In patent US12115147B2, “Formulations and methods related to eye irritation” (Lebrun Labs LLC, priority 2020, dated 2024):
Where two headings read alike, the source gives them in different places.

How the values were obtained:
[1] = pH 6.36
rabbit eye = conditions: cited from earlier work
[2] = no antioxidants, predicted GHS class, cited from earlier work
[3] = OS2 (OPTISAFE2), OPTISAFE formulation with antioxidants; conditions: for OS2 Cons: majority prediction of the triplicate assays; for OS2 R3: repeat 3, with antioxidants
[4] = Table 7B, based on the Draize data
[5] = Table 7B, consensus of past application domain study
[6] = Table 7A, based on the Draize data
[7] = Table 7A, consensus of past transferability study
[8] = Table 7B, repeat 1, with antioxidants, predicted GHS class

## CC(C)C=O [Isobutyraldehyde]
[1]
  OS2 Cons: 1
  OS2 R3: 1
Rabbit eye; rabbit, in vivo
  In vivo GHS: 2B (key: NC (not classified as an irritant); 2A (reversal by 7 days); 2B (reversal by 14 days); 1 (no reversal by 21 days))

## CC(C)O [Isopropanol]
[1]
  OS2 Cons: 2
  OS2 R1: 2
  OS2 R3: 2
Rabbit eye; [4]
  In vivo GHS: 2A (2A (reversal by 7 days))
[2]; [5]
  OS Cons: 2

## CC(=O)CC(=O)OC(C)C [Isopropyl acetoacetate]
[1]
  OS2 Cons: 1
  OS2 R1: 1
  OS2 R3: 1
Rabbit eye; [4]
  In vivo GHS: 2B (2B (reversal by 14 days))
[2]; [5]
  OS Cons: 1

## CCCCCCCCCCCCCC(=O)OC(C)C [Isopropyl myristae]
Rabbit eye; rabbit, in vivo
  known ocular irritancy (FIG. 4 legend): Nonirritants

## CC(O)C(=O)O (stereo not shown) [Lactic Acid]
Rabbit eye; rabbit, in vivo
  In vivo GHS: 1 (key: NC (not classified as an irritant); 2A (reversal by 7 days); 2B (reversal by 14 days); 1 (no reversal by 21 days))

## CCCCCCCCCCCC(=O)O [Lauric acid]
[1]
  OS2 Cons: 1
  OS2 R1: 1
  OS2 R3: 1
Rabbit eye; [4]
  In vivo GHS: 1 (1 (no reversal by 21 days))
[2]; [5]
  OS Cons: 1

## S=C([S-])NCCNC(=S)[S-].[Mn+2] [Maneb (solid), Maneb]
Rabbit eye; rabbit, in vivo
  In vivo GHS: 2B (key: NC (not classified as an irritant); 2A (reversal by 7 days); 2B (reversal by 14 days); 1 (no reversal by 21 days))

## COC(C)=O [Methyl acetate]
[1]
  OS2 Cons: 2
  OS2 R1: 2
  OS2 R3: 2
Rabbit eye; [4]
  In vivo GHS: 2A (2A (reversal by 7 days))
Rabbit eye; rabbit, in vivo
  known ocular irritancy (FIG. 4 legend): Irritants
[2]; [5]
  OS Cons: 2

## COC(=O)CC#N [Methyl cyanoacetate]
[1]
  0S2 R1: 1
  OS2 Cons: 1
  OS2 R3: 1
Rabbit eye; [6]
  In vivo GHS: 2A (2A (reversal by 7 days))
[2]; [7]
  OS Cons: 1

## CCCOCC(C)O (stereo not shown) [Propasol solvent P]
[3]; Table 7A
  OS2 Cons: 2
[3]; Table 7A, repeat 1, with antioxidants, predicted GHS class
  0S2 R1: 2
[3]; Table 7A, predicted GHS class
  OS2 R3: 2
Rabbit eye; [6]
  In vivo GHS: 2A (2A (reversal by 7 days))
[2]; [7]
  OS Cons: 2

## CC(C=O)Cc1ccc(C(C)(C)C)cc1 (stereo not shown) [Protectol PP]
[3]; Table 7B
  OS2 Cons: 1
[3]; [8]
  OS2 R1: 1
[3]; Table 7B, predicted GHS class
  OS2 R3: 1

## O=C([O-])CCl.[Na+] [Sodium chloroacetate]
Rabbit eye; [6]
  In vivo GHS: 2B (2B (reversal by 14 days))

## O.O.O.O.[Na+].[O-]B1OO1 [Sodium perborate tetrahydrate]
[3]; Table 7B
  OS2 Cons: 1
[3]; [8]
  OS2 R1: 1
[3]; Table 7B, predicted GHS class
  OS2 R3: 1

## O=C(Nc1ccc(Cl)cc1)Nc1ccc(Cl)c(Cl)c1 [Triclocarban]
[3]; Table 7B
  OS2 Cons: CNM
[3]; [8]
  OS2 R1: CNM
[3]; Table 7B, predicted GHS class
  OS2 R3: CNM
[2]; [5]
  OS Cons: CNM

## O=C1CCCO1 [gamma-Butyrolactone]
[3]; Table 7B
  OS2 Cons: 2
[3]; [8]
  OS2 R1: 2
[3]; Table 7B, predicted GHS class
  OS2 R3: 2
Rabbit eye; [4]
  In vivo GHS: 2A (2A (reversal by 7 days))
[2]; [5]
  OS Cons: 2

## CCN(CC)C(=O)c1cccc(C)c1 [n,n-Diethyl-m-toluamide]
[3]; Table 7B
  OS2 Cons: 1
[3]; [8]
  OS2 R1: 1
[3]; Table 7B, predicted GHS class
  OS2 R3: 1
Rabbit eye; [4]
  In vivo GHS: 2B (2B (reversal by 14 days))
Rabbit eye; rabbit, in vivo
  known ocular irritancy (FIG. 4 legend): Irritants
[2]; [5]
  OS Cons: 2

## CCCCCCO [n-Hexanol]
[1]
  OS2 Cons: 2
  OS2 R1: 2
  OS2 R3: 1
Rabbit eye; [4]
  In vivo GHS: 2A (2A (reversal by 7 days))
[2]; [5]
  OS Cons: 2

## CCCCCCBr [n-Hexyl bromide]
Rabbit eye; rabbit, in vivo
  known ocular irritancy (FIG. 4 legend): Nonirritants

## CCCCCCCCO [n-Octanol]
[1]
  OS2 Cons: 2
  OS2 R1: 2
  OS2 R3: 2
  OS2 score average: 19.1
  OS2 scores ranged from: 16.5-22.8
  Score = Average score: 19.1
Rabbit eye; [4]
  In vivo GHS: 2A (2A (reversal by 7 days))
Rabbit eye; rabbit, in vivo
  known ocular irritancy (FIG. 4 legend): Irritants
[2]; [5]
  OS Cons: 2

## Cc1ccc(C=S)cc1 [p-Methyl thiobenzaldehyde]
[1]
  OS2 Cons: 1
  OS2 R1: 1
  OS2 R3: 1
[2]; [5]
  OS Cons: 1

## Sodium lauroyl sarcosinate [Sodium lauroyl sarcosinate (10%)]
[3]; due to assay inhibition
  OS2 result, expanded surfactant study: CNM
